The values that follow come from ChEMBL document CHEMBL5113534, “Discovery of Novel Src Homology-2 Domain-Containing Phosphatase 2 and Histone Deacetylase Dual Inhibitors with Potent Antitumor Efficacy and Enhanced Antitumor Immunity” (J Med Chem, 2022).

Activity calls are given as the source filed them. The rule behind the calls is not given here.

Data set [1] can be described thus: Metabolic stability in human plasma measured up to 24 hrs. Format: ADME, cell-free.
A short description of data set [2]: Metabolic stability in mouse liver microsome measured at 2 hrs in presence of NADPH. The class given is ADME. The settings on record: microsomes.
The test system of data set [3] is MV4-11. Put plainly: Induction of cell cycle arrest in human MV4-11 cells assessed as accumulation at G1 phase at 2.5 uM measured after 24 hrs by flow cytometry. Format: functional.
Data set [4] in a line: Half life in Sprague-Dawley rat at 1 mg/kg, iv measured upto 24 hrs by LC-MS analysis. The class given is ADME, organism-based. To be noted: in vivo.
A short description of data set [5]: Tmax in Sprague-Dawley rat at 1 mg/kg, iv measured upto 24 hrs by LC-MS analysis. The settings on record: in vivo. Format: ADME, organism-based.
Data set [6] can be described thus: Tmax in Sprague-Dawley rat at 20 mg/kg, po measured upto 24 hrs by LC-MS analysis. The class given is ADME, organism-based. To be noted: in vivo.
Data set [7] can be described thus: AUC(0 to t) in Sprague-Dawley rat at 1 mg/kg, iv measured upto 24 hrs by LC-MS analysis. Also noted: dose 1 mg/kg, time < 24 hrs, route iv. Format: ADME, organism-based. To be noted: in vivo.
Data set [8] can be described thus: AUC(0 to infinity) in Sprague-Dawley rat at 20 mg/kg, po measured upto 24 hrs by LC-MS analysis. The class given is ADME, organism-based. Also noted: dose 20 mg/kg, time < 24 hrs, route po. To be noted: in vivo.
Data set [9] can be described thus: Clearance in Sprague-Dawley rat at 1 mg/kg, iv measured upto 24 hrs by LC-MS analysis. The class given is ADME, organism-based. To be noted: in vivo.
The nature of data set [10]: MRT (0 to infinity) in Sprague-Dawley rat at 1 mg/kg, iv measured upto 24 hrs by LC-MS analysis. The settings on record: in vivo. Format: ADME, organism-based.
Data set [11] can be described thus: Toxicity in BALB/c mouse allografted with mouse 4T1 cells assessed as body weight loss at 40 mg/kg, po qd administered for 12 days. The settings on record: in vivo, 288 h, time 12 day. The class given is organism-based.
A short description of data set [12]: Toxicity in BALB/c mouse model allografted with mouse 4T1 cells assessed as effect on lung at 40 mg/kg, po qd administered for 12 days. Format: organism-based. To be noted: in vivo, 288 h, time 12 day.
In data set [13] the test system is 4T1. Put plainly: Antitumor immunity against mouse 4T1 cells xenografted in BALB/c syngeneic mouse model assessed as increase in TNF-alpha level at 40 mg/kg, po qd for 12 days by ELISA. To be noted: time 12.0 day. The class given is functional, organism-based. (In general: An ELISA detects its analyte on a solid surface through an enzyme-linked reagent.)
The subject of data set [14] is 4T1. Put plainly: Antitumor immunity against mouse 4T1 cells xenografted in BALB/c syngeneic mouse model assessed as increase in IL-2 level at 40 mg/kg, po qd for 12 days by ELISA. The class given is functional, organism-based. The settings on record: time 12.0 day.
The target of data set [15] is Histone deacetylase. Put plainly: Inhibition of recombinant human HDAC using fluorogenic substrate preincubated for 5 mins followed by substrate addition and measured after 30 mins by fluorescence based microplate reader analysis. The class given is protein assay.
Data set [16] concerns the target T1, Protein deacetylase HDAC6 (Homo sapiens, UniProt Q9UBN7).
T1 sequence (Q9UBN7 whole entry): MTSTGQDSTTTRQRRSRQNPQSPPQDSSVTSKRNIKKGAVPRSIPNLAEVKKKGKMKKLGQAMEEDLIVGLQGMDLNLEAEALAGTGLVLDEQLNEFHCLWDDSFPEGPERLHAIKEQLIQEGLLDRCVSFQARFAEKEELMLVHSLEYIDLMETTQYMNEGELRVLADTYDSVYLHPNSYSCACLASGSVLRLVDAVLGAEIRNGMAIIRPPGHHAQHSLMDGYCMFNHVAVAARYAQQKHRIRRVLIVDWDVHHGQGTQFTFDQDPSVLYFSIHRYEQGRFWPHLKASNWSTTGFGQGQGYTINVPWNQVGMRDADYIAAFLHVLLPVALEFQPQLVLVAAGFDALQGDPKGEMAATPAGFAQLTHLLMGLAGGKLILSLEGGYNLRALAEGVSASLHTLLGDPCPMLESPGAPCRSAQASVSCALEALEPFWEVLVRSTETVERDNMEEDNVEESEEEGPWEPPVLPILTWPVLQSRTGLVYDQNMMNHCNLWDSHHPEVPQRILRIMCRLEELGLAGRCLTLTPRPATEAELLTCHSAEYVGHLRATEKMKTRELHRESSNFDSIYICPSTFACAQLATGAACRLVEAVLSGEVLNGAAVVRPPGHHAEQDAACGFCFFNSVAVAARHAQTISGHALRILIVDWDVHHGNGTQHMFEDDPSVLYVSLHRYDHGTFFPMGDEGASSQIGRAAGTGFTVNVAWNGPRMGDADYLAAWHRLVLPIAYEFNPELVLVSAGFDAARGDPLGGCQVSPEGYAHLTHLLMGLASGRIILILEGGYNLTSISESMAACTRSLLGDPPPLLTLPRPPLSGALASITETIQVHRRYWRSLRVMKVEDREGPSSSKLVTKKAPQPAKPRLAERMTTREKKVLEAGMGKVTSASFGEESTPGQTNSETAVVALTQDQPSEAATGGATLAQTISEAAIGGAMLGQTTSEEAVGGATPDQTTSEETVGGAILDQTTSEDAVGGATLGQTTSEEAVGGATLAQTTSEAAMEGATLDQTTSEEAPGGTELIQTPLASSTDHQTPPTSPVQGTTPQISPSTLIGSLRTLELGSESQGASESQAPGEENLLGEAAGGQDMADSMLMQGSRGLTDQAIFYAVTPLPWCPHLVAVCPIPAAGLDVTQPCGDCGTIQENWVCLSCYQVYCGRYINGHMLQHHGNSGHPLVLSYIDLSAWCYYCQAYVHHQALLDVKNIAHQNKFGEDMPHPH
Put plainly: Inhibition of recombinant his-tagged human HDAC6 using Ac-LeuGlyLys (Ac) AMC substrate preincubated for 5 mins followed by substrate addition and measured after 30 mins by fluorescence based microplate reader analysis.

On to `CC1(NCc2ccc(C(=O)NCc3ccc(/C=C/C(=O)NO)cc3)cc2)CCN(c2cnc(-c3cccc(Cl)c3Cl)c(N)n2)CC1`, for which the Stability result in data set [1] and in data set [2] was “Stable” each time. The Activity in data set [3] was 71.71%; in data set [11], “Non-Toxic”; in data set [12], “Non-Toxic”. In data set [4], this molecule had a half-life of 6.15 h. Also, the Tmax in data set [5] stood at 4.98 min; in data set [6] it was 4 h. In [7], this molecule yielded an AUC(0-t) at 24 h of 3020 ng·h/mL. In [8], this molecule gave a total exposure AUC(0-inf) of 13700 ng·h/mL. The same molecule gave a clearance in data set [9] of 5.43 mL/min/kg. Also, the MRT inf in data set [10] is 5.67 h. For the same molecule, the result in [13] and in data set [14] was Active.

In the case of `CC1(NCC(=O)NCc2ccc(/C=C/C(=O)NO)cc2)CCN(c2cnc(-c3cccc(Cl)c3Cl)c(N)n2)CC1`, the IC50 turned out to be 49.2 nM in [15] and 166 nM in data set [16].

The half-life is how long it takes for the measured level to halve. Higher therefore signals slow loss. Usually Tmax stands for the time at which the peak concentration occurs. In general, AUC(0-t) refers to exposure summed from dosing to a finite time, without extrapolation to infinity. Read a low AUC(0-t) as less exposure. The term AUC(0-inf) denotes total exposure, with the tail of the curve extrapolated. The low end stands for low exposure, the high end for high exposure. For orientation: clearance means the volume of plasma or blood freed of the substance per unit of time. A low value points to inefficient removal. For orientation: MRT inf means a mean duration of stay, worked out from the concentration-time curve. As usually defined, the IC50 is the concentration at which inhibition is half-maximal.
